# In BindingDB's records for doi:10.1111/cbdd.12732 (Yogi Vemana University, 2016):
# Target: Acetylcholinesterase (Electrophorus electricus, UniProt O42275)
# Test: AChE Inhibitory Assay
# Details: pH 7.7
# Description: The mixture was incubated at 25 °C for 5 min. Subsequently, the enzymatic reaction was initiated by addition of 15 µL of 1 mM of acetylthiocholine iodide or butyrylthiocholine iodide (according to the respective enzyme), and the mixture was again incubated for 5 min at 25 °C. The rate of absorbance change was measured at 412 nm for 6 min using a microplate reader (Bio-Rad 680, Germany). Galantamine was applied as positive drug.
# Sequence of Acetylcholinesterase (O42275 whole entry): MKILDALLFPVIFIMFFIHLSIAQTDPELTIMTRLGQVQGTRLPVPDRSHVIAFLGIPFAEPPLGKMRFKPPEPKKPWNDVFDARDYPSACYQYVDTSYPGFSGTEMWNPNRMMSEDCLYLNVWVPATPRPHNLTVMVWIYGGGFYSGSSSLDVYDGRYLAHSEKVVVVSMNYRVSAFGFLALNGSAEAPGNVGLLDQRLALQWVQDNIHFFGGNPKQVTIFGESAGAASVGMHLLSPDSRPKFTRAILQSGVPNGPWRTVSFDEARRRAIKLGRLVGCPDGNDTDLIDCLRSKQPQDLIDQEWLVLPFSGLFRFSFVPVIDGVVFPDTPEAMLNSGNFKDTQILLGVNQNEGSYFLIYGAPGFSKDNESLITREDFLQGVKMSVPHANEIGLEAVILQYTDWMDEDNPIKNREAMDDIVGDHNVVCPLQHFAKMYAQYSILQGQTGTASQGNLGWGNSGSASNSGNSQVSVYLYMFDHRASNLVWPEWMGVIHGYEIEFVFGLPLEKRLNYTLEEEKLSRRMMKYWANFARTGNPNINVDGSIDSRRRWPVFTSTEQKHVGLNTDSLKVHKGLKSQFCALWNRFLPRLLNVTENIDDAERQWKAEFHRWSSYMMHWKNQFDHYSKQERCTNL
row,Structure (SMILES),IC50 [nM]
1,"N=c1oc2ccc3ccc(=O)oc3c2cc1C(=O)NCc1ccccc1Cl [N-(2-chlorobenzyl)-8-imino-2-oxo-2H,8H-pyrano[2,3-f]chromene-9-carboxamide (4n)]",30
2,"CNC(=O)c1cc2c(ccc3ccc(=O)oc32)oc1=N [8-imino-N-methyl-2-oxo-2H,8H-pyrano[2,3-f]chromene-9-carboxamide (4a)]",415
3,"CC(NC(=O)c1cc2c(ccc3ccc(=O)oc32)oc1=N)c1ccccc1 (configuration not stated) [8-imino-2-oxo-N-(1-phenylethyl)-2H,8H-pyrano[2,3-f]chromene-9-carboxamide (4h)]",462
4,"Cc1cc(=O)oc2c1ccc1oc(=N)c(C(=O)NCc3ccc(C(C)(C)C)cc3)cc12 [N-(4-(tert-butyl)benzyl)-8-imino-4-methyl-2-oxo-2H,8H-pyrano[2,3-f]chromene-9-carboxamide (4p)]",77
5,"N=c1oc2ccc3ccc(=O)oc3c2cc1C(=O)NC(c1ccccc1)c1ccccc1 [N-benzhydryl-8-imino-2-oxo-2H,8H-pyrano[2,3-f]chromene-9-carboxamide (4i)]",669
6,"COc1ccc(CNC(=O)c2cc3c(ccc4ccc(=O)oc43)oc2=N)c(OC)c1 [N-(2,4-dimethoxybenzyl)-8-imino-2-oxo-2H,8H-pyrano[2,3-f]chromene-9-carboxamide (4k)]",300
7,"N=c1oc2ccc3ccc(=O)oc3c2cc1C(=O)NCc1cccc(Br)c1 [N-(3-bromobenzyl)-8-imino-2-oxo-2H,8H-pyrano[2,3-f]chromene-9-carboxamide (4m)]",13
8,"N=c1oc2ccc3ccc(=O)oc3c2cc1C(=O)NCc1cccc(Cl)c1 [N-(3-chlorobenzyl)-8-imino-2-oxo-2H,8H-pyrano[2,3-f]chromene-9-carboxamide (4o)]",88
9,"CCCCCCCCCCCCNC(=O)c1cc2c(ccc3ccc(=O)oc32)oc1=N [N-dodecyl-8-imino-2-oxo-2H,8H-pyrano[2,3-f]chromene-9-carboxamide (4c)]",83
10,"CCNC(=O)c1cc2c(ccc3ccc(=O)oc32)oc1=N [N-ethyl-8-imino-2-oxo-2H,8H-pyrano[2,3-f]chromene-9-carboxamide (4b)]",259
11,"N=c1oc2ccc3ccc(=O)oc3c2cc1C(=O)NCc1ccccc1Br [N-(2-bromobenzyl)-8-imino-2-oxo-2H,8H-pyrano[2,3-f]chromene-9-carboxamide (4l)]",27
12,"N=c1oc2ccc3ccc(=O)oc3c2cc1C(=O)NC1CCCCC1 [N-cyclohexyl-8-imino-2-oxo-2H,8H-pyrano[2,3-f]chromene-9-carboxamide (4e)]",169
13,"N=c1oc2ccc3ccc(=O)oc3c2cc1C(=O)NC1CC1 [N-cyclopropyl-8-imino-2-oxo-2H,8H-pyrano[2,3-f]chromene-9-carboxamide (4d)]",799
14,"N=c1oc2ccc3ccc(=O)oc3c2cc1C(=O)N1CCOCC1 [8-imino-9-(morpholine-4-carbonyl)-2H,8H-pyrano[2,3-f]chromen-2-one (4f)]",226
15,"COc1ccc(C(C)NC(=O)c2cc3c(ccc4ccc(=O)oc43)oc2=N)cc1 (configuration not stated) [8-imino-N-(1-(4-methoxyphenyl)ethyl)-2-oxo-2H,8Hpyrano[2,3-f]chromene-9-carboxamide (4j)]",390
16,"N=c1oc2ccc3ccc(=O)oc3c2cc1C(=O)NCc1ccccc1 [N-benzyl-8-imino-2-oxo-2H,8H-pyrano[2,3-f]chromene-9-carboxamide (4g)]",497
17,"COc1ccccc1OCCNC(=O)c1cc2c(ccc3ccc(=O)oc32)oc1=N [8-imino-N-(2-(2-methoxyphenoxy)ethyl)-2-oxo-2H,8H-pyrano[2,3-f]chromene-9-carboxamide (4q)]",440
